The numbers were not newly measured in patent US5922690A (priority 1997, dated 1999), which cites them from elsewhere.

The subject of the series is rabbits. Particulars: in vivo.

With dermatan sulfate [DS], the “Multiple of the antithrombotic dose injected without increasing bleeding” value (rabbit) is “up to forty times”.

For the substance heparin, the “Bleeding from a standardized incision in a rabbit's ear, heparin versus DS” value is listed as “much greater”.
